From patent US8669246B2, “Substituted amide compound” (Astellas Pharma Inc., priority 2009, dated 2014)

Tests used:
[1] = target: T1, human LPA1 (Homo sapiens, UniProt Q92633); experiment: Antagonistic action on human LPA1: inhibition of LPA-stimulated increase in intracellular calcium ion concentration in human LPA1-CHO cells; format: cell-based; details: LPA 100 nM, Fluo-4/FLIPR calcium signal
T1 construct: expressed in transfected cells
Procedure: Antagonistic Action of Compound of Formula (I) on Human LPA1
The antagonistic action on a human LPA 1 was evaluated with an index of an inhibitory action on the LPA-stimulated increase in intracellular calcium ion concentration, using human LPA 1-CHO cells [cells in which human LPA1 receptors are stably expressed in CHO (dhfr gene-deficient) cell lines].
Establishment of human LPA1-CHO cells was performed based on the basic genetic engineering techniques.
The established cells were maintained by passage in a nucleic acid-free α-MEM medium (Invitrogen) containing 10% FBS, 1% penicillin/streptomycin (Invitrogen), and 100 nM methotrexate, and before experiment, the medium was replaced with a medium that had been reduced to 1% of the […] concentration, then seeded in 96-well plates to 1.5×10e^5 cells/100 μL/well, and incubated overnight.
On the day of experiment, a 0.5 μM Fluo-4 solution [a solution prepared by adding 20 mM HEPES (Sigma), […] probenecid (Nacalai Tesque), 0.05% BSA, 0.5 μM Fluo-4 AM (Dojindo Laboratories), and 0.1% Pluronic […] (Molecular Probe Co.) to a Hanks Balanced Solt Solution (Invitrogen)] was added to the cells, and Fluo-4 was loaded on the cells by incubating for 2 hours at room temperature.
After loading Fluo-4, the Fluo-4 solution was replaced with a reaction solution [a solution obtained by adding 20 mM HEPES, […] probenecid, and 0.05% BSA to a Hanks Balanced Solt Solution], and then measurement was performed using a device for measuring an intracellular calcium concentration (FLIPR tetra, Molecular Devices Inc.).
A reaction solution in which the compound of the formula (I) (with a final concentration of 0.1 nM to 10 μM) had been dissolved was added to each of the wells, the signals were measured over time for 4 minutes, then a reaction solution in which LPA (final concentration 100 nM) had been dissolved was added thereto, and the signals were measured over time for 2 minutes. The difference between the maximum and minimum response during one minute from addition of LPA was calculated. The inhibitory activity was calculated, with a response when LPA only (not including the compound) was added was taken as 0% inhibition, and a response when a reaction solution not including both of the compound and LPA was added was taken as 100% inhibition. Then the 50% inhibitory concentration was calculated as an IC50 value (nM).
Human LPA1-CHO cells used in the present test were the cells with the same sequence as described in the pamphlet of International Publication WO 99/19513 were used. Further, Ex represents Example No. as denoted below.

[2] = tested on: LPA-induced increase in urethral pressure; experiment: Inhibitory action on LPA-induced increase in urethral pressure in rats under anesthesia; format: in vivo, rat (male Wistar); details: Rattus norvegicus, 5 min; 0.1 mg/kg intravenous, LPA (1-oleoyl) 3 mg/kg iv after 5 minutes, anesthetized rats, vs solvent; read-out: Inhibitory rate
Procedure: Inhibitory Action of Compound of Formula (I) on LPA-Induced Increase in Urethral Pressure in Rats Under Anesthesia (with Intravenous Administration at 0.1 mg/kg) Male Wistar rats (Charles River, 9- to 12-week old) were anesthetized with urethane (1.2 g/kg ip), and held in the supine position on an operating table kept at 37° C. The lower abdominal portion was midline-incised and the bladder was thus exposed. A small portion of the bladder apex was incised, a microchip pressure transducer (Millar) was inserted antegrade, and then placed in the urethra, and the urethral pressure was recorded continuously. In addition, a cannula for administration of a drug was placed into the femoral vein. After about 1 hour of stabilization, the compound of formula (I) (0.1 mg/kg) was administered intravenously. After 5 minutes, LPA (1-oleoyl) was administered intravenously at 3 mg/kg, and the changes in the urethral pressure were recorded. The inhibitory rates (%) of the compound of the formula (I) on the LPA-stimulated increase in the urethral pressure compared with those after administration of the solvent of the compound of the formula (I) were recorded.

T1 sequence (Q92633 whole entry): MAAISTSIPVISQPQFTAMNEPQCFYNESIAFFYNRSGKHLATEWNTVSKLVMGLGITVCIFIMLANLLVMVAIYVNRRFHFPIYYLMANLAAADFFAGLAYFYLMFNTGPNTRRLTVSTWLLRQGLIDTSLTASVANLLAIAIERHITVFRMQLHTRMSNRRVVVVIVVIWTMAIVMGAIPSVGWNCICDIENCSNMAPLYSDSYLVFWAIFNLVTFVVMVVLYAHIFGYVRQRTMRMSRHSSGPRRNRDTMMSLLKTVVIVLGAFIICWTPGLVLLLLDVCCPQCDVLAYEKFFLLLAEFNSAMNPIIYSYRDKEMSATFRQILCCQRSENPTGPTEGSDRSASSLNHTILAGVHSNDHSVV

Row | SMILES | IC50 [1] | melting point | inhibition in vivo at 0.1 mg/kg [2]
1 | COc1ccc([C@@H](O)C(=O)N(CCCc2ccccc2)Cc2nc(C(=O)NS(=O)(=O)N(C)C)c(C)s2)cc1 [Example 290] | 0.033 µM | 110 to 112 °C | 
2 | CCNS(=O)(=O)[N-]C(=O)c1csc(CN(CCCc2ccccc2)C(=O)c2cc(OC)c(C)c(OC)c2)n1.[K+] |  | 203 to 205 °C | 
3 | COc1ccc(C2(C(=O)N(CCCc3ccco3)Cc3nc(C(=O)NS(=O)(=O)N(C)C)c(C)s3)CC2)cc1 [Example 233] | 0.022 µM |  | 38%
4 | CCS(=O)(=O)NC(=O)c1nc(CN(CCCc2ccccc2)C(=O)[C@H](O)c2ccc(OC)cc2F)sc1C [Example 278] |  | 111 to 112 °C | 
5 | Cc1cc(C(=O)N(CCCc2ccccc2)Cc2nc(C(=O)NS(N)(=O)=O)c(Cl)s2)cc(C)c1O [Example 147] | 0.016 µM |  | 
6 | COc1cc(C(=O)N(CCCc2ccccc2)Cc2csc(C(=O)NS(N)(=O)=O)n2)cc(OC)c1C [Example 62] | 0.011 µM | 173 to 175 °C | 
7 | COc1cc(C(=O)N(CCCc2ccc(Cl)s2)Cc2nc(C(=O)NS(N)(=O)=O)cs2)cc(OC)c1C [Example 110] | 0.011 µM | 154 to 156 °C | 
8 | COc1ccc(C2(C(=O)N(CCCc3ccc(C)o3)Cc3nc(C(=O)NS(=O)(=O)N(C)C)c(C)s3)CC2)nc1 [Example 200] | 0.033 µM |  | 31%
9 | COc1cc(C(=O)N(CCCc2ccccc2)Cc2nc(C(=O)NS(N)(=O)=O)co2)cc(OC)c1C [Example 121] | 0.019 µM | 136 to 141 °C | 
10 | COc1cc(C(=O)N(CCCc2ccc(C)o2)Cc2nc(C(=O)NS(N)(=O)=O)cs2)cc(OC)c1C [Example 111] | 0.0066 µM |  | 56%
11 | COc1ccc([C@@H](O)C(=O)N(CCCc2cccs2)Cc2nc(C(=O)NS(=O)(=O)N(C)C)c(C)s2)cc1 [Example 256] |  | 118 to 120 °C | 
12 | CCS(=O)(=O)NC(=O)c1nc(CN(CCCc2ccccc2)C(=O)[C@H](O)c2ccc(OC)cc2)sc1C [Example 266] | 0.065 µM | 123 to 125 °C | 15%
13 | C=Cc1c(OC)cc(C(=O)N(CCCc2ccccc2)Cc2nc(C(=O)NS(N)(=O)=O)cs2)cc1OC [Example 130] |  |  | 39%
14 | CNS(=O)(=O)NC(=O)c1csc(CN(CCCc2ccsc2)C(=O)c2cc(OC)c(C)c(OC)c2)n1 [Example 137] | 0.0099 µM |  | 17%
15 | COc1cc(C(=O)N(CCCc2ccccc2)Cc2nc(C(=O)NS(=O)(=O)c3cccs3)cs2)cc(OC)c1C [Example 5, 2-{[(3,5-dimethoxy-4-methylbenzoyl)(3-phenylpropyl)amino]methyl}-N-(2-thienylsulfonyl)-1,3-thiazole-4-carboxamide] | 0.0078 µM |  | 
16 | COc1ccc(C2(C(=O)N(CCCc3ccco3)Cc3nc(C(=O)NS(=O)(=O)N(C)C)c(C)s3)CC2)nc1 [Example 221] |  | 112 to 113 °C | 
17 | COc1cc(C(=O)N(CCCc2ccccc2)Cc2nc(C(=O)NS(N)(=O)=O)cs2)cc(OC)c1Br [Example 132] |  |  | 42%
18 | COc1ccc([C@@H](O)C(=O)N(CCCc2ccccc2)Cc2nc(C(=O)NS(=O)(=O)C(C)C)c(C)s2)cc1 [Example 285] | 0.032 µM | 137 to 138 °C | 
19 | COc1cc(C(=O)N(CCCc2ccccc2)Cc2ccc(C(=O)NS(N)(=O)=O)o2)cc(OC)c1C [Example 123] | 0.0075 µM |  | 39%
20 | COc1ccc(C2(C(=O)N(CCCc3cccc(F)c3)Cc3nc(C(=O)NS(=O)(=O)N(C)C)c(C)s3)CC2)nc1 [Example 208] | 0.04 µM | 114 to 115 °C | 14%

Row | SMILES | IC50 [1] | melting point | inhibition in vivo at 0.1 mg/kg [2]
21 | COc1cc(C(=O)N(CCCc2ccccc2F)Cc2nc(C(=O)NS(=O)(=O)N(C)C)cs2)cc(OC)c1C [Example 119] |  | 128 to 131 °C | 
22 | COc1cc(C(=O)N(CCCc2ccccc2)Cc2nc(C(=O)NS(N)(=O)=O)cs2)cc(OC)c1C1CC1 [Example 131] | 0.0072 µM | 147 to 149 °C | 38%
23 | COc1cc(C(=O)N(CCCc2ccccc2)Cc2nc(C(=O)NS(=O)(=O)CC(C)O)cs2)cc(OC)c1C (stereo not drawn) [Example 175] | 0.023 µM |  | 
24 | COc1cc(C(=O)N(CCCc2ccccc2F)Cc2nc(C(=O)NS(N)(=O)=O)cs2)cc(OC)c1C [Example 113] | 0.012 µM | 145 to 146 °C | 
25 | CNS(=O)(=O)NC(=O)c1nc(CN(CCCc2cccs2)C(=O)[C@H](O)c2ccc(OC)cc2)sc1C [Example 283] | 0.029 µM | 106 to 109 °C | 
26 | COc1ccc([C@@H](O)C(=O)N(CCCc2ccccc2)Cc2nc(C(=O)NS(C)(=O)=O)c(C)s2)c(F)c1 [Example 277] | 0.012 µM | 121 to 123 °C | 42%
27 | COCc1c(OC)cc(C(=O)N(CCCc2ccccc2)Cc2nc(C(=O)NS(=O)(=O)NOC)c(C)s2)cc1OC [Example 161] |  | 151 to 153 °C | 
28 | COc1cc(C(=O)N(CCCc2ccccc2)Cc2nc(C(=O)NS(=O)(=O)Nc3ccccn3)cs2)cc(OC)c1C [Example 79] | 0.016 µM |  | 
29 | COc1ccc(C2(C(=O)N(CCCc3ccccc3)Cc3nc(C(=O)NS(=O)(=O)N(C)C)c(C)s3)CC2)nc1 [Example 31] |  | 125 to 126 °C | 
30 | COc1cc(C(=O)N(CCCc2cc(F)ccc2F)Cc2nc(C(=O)NS(N)(=O)=O)cs2)cc(OC)c1C [Example 115] | 0.016 µM |  | 
31 | COc1cc(C(=O)N(CCCc2ccccc2)Cc2nc(C(=O)NS(=O)(=O)NC(C)=O)cs2)cc(OC)c1C [Example 168, N-(acetylsulfamoyl)-2-{[(3,5-dimethoxy-4-methylbenzoyl)(3-phenylpropyl)amino]methyl}-1,3-thiazole-4-carboxamide] | 0.017 µM |  | 
32 | COc1cc(C(=O)N(CCCc2ccccc2)Cc2nc(C(=O)NS(N)(=O)=O)cs2)cc(OC)c1C [Example 69] | 0.0088 µM | 147 to 150 °C | 33%
33 | COc1cc(C(=O)N(CCCc2ccccc2)Cc2nc(C(=O)NS(=O)(=O)CCO)cs2)cc(OC)c1C [Example 167] | 0.012 µM |  | 35%
34 | COc1cc(C(=O)N(CCCc2ccccc2)Cc2nc(C(=O)NS(C)(=O)=O)c(C)s2)cc(OC)c1C [Example 109] | 0.022 µM | 128 to 131 °C | 
35 | COc1ccc(C(O)C(=O)N(CCCc2ccccc2)Cc2nc(C(=O)NS(=O)(=O)N(C)C)c(C)s2)cn1 (stereo not drawn) [Example 28] |  | 178 to 179 °C | 
36 | CNS(=O)(=O)NC(=O)c1nc(CN(CCCc2ccccc2)C(=O)c2cc(OC)c(C)c(OC)c2)cs1 [Example 63] |  |  | 28%
37 | CNS(=O)(=O)NC(=O)c1nc(CN(CCCc2ccccc2)C(=O)c2cc(OC)c(Cl)c(OC)c2)sc1Cl [Example 162] |  |  | 21%
38 | COc1ccc(C2(C(=O)N(CCCc3cccc(F)c3)Cc3nc(C(=O)[N-]S(=O)(=O)N(C)C)c(C)s3)CC2)nc1.[K+] |  | 219 to 221 °C | 
39 | COc1cc(C(=O)N(CCCc2ccccc2)Cc2nc(C(=O)NS(C)(=O)=O)cs2)cc(OC)c1C [Example 108] | 0.011 µM | 133 to 134 °C | 
40 | CCS(=O)(=O)NC(=O)c1nc(CN(CCCc2cccs2)C(=O)[C@H](O)c2ccc(OC)cc2)sc1C [Example 272] | 0.044 µM | 124 to 126 °C | 
